In US12110295B2, “WD40 repeat domain protein 5 (WDR5) degradation/disruption compounds and methods of use” (Icahn School of Medicine at Mount Sinai, priority 2018, dated 2024):

Target: WDR5 (Homo sapiens, UniProt P61964)
Assay: Screening of putative WDR5 degraders by Western blot in MV4;11 and/or MIAPACA2 cells
Format: cell-based
Parameters: After WDR5 degrader treatment, cells were collected and lysed; endogenous in cells; host or cells: MV4;11 and/or MIAPACA2
Settings: summary of screening, FIGS. 6-10
How it was run: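 MV4;11 (1×10^6/well) or MIAPACA2 (1×10^5/well) cells treated 18 h with compound at paired doses between 0.1 and 10 μM, DMSO as control. Total lysates immunoblotted for WDR5 with vinculin, tubulin or GAPDH loading controls; fluorescent secondary detection.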

SMILES | effective degradation of WDR5 in MV4;11 and/or MIAPACA2 cells
Cc1ncsc1-c1ccc(CNC(=O)[C@@H]2C[C@@H](O)CN2C(=O)[C@@H](NC(=O)CCCCCC(=O)N2CC=C(c3cc(NC(=O)c4c[nH]c(=O)cc4C(F)(F)F)c(N4C[C@@H](C)N(C)[C@@H](C)C4)cc3F)CC2)C(C)(C)C)cc1 [XF078-42, N-(4-fluoro-5-(1-(7-(((S)-1-((2S,4R)-4-hydroxy-2-((4-(4-methylthiazol-5-yl)benzyl)carbamoyl)pyrrolidin-1-yl)-3,3-dimethyl-1-oxobutan-2-yl)amino)-7-oxoheptanoyl)-1,2,3,6-tetrahydropyridin-4-yl)-2-((3S,5R)-3,4,5-trimethylpiperazin-1-yl)phenyl)-6-oxo-4-(trifluoromethyl)-1,6-dihydropyridine-3-carboxamide] | able to effectively degrade WDR5
Cc1ncsc1-c1ccc(CNC(=O)[C@@H]2C[C@@H](O)CN2C(=O)[C@@H](NC(=O)CCCCCCC(=O)N2CC=C(c3cc(NC(=O)c4c[nH]c(=O)cc4C(F)(F)F)c(N4C[C@@H](C)N(C)[C@@H](C)C4)cc3F)CC2)C(C)(C)C)cc1 [XF078-43, N-(4-fluoro-5-(1-(8-(((S)-1-((2S,4R)-4-hydroxy-2-((4-(4-methylthiazol-5-yl)benzyl)carbamoyl)pyrrolidin-1-yl)-3,3-dimethyl-1-oxobutan-2-yl)amino)-8-oxooctanoyl)-1,2,3,6-tetrahydropyridin-4-yl)-2-((3S,5R)-3,4,5-trimethylpiperazin-1-yl)phenyl)-6-oxo-4-(trifluoromethyl)-1,6-dihydropyridine-3-carboxamide] | able to effectively degrade WDR5
Cc1ncsc1-c1ccc(CNC(=O)[C@@H]2C[C@@H](O)CN2C(=O)[C@@H](NC(=O)CCCCCCCC(=O)N2CC=C(c3cc(NC(=O)c4c[nH]c(=O)cc4C(F)(F)F)c(N4C[C@@H](C)N(C)[C@@H](C)C4)cc3F)CC2)C(C)(C)C)cc1 [XF078-44, N-(4-fluoro-5-(1-(9-(((S)-1-((2S,4R)-4-hydroxy-2-((4-(4-methylthiazol-5-yl)benzyl)carbamoyl)pyrrolidin-1-yl)-3,3-dimethyl-1-oxobutan-2-yl)amino)-9-oxononanoyl)-1,2,3,6-tetrahydropyridin-4-yl)-2-((3S,5R)-3,4,5-trimethylpiperazin-1-yl)phenyl)-6-oxo-4-(trifluoromethyl)-1,6-dihydropyridine-3-carboxamide] | able to effectively degrade WDR5
Cc1ncsc1-c1ccc(CNC(=O)[C@@H]2C[C@@H](O)CN2C(=O)[C@@H](NC(=O)CCCCCCCCC(=O)N2CC=C(c3cc(NC(=O)c4c[nH]c(=O)cc4C(F)(F)F)c(N4C[C@@H](C)N(C)[C@@H](C)C4)cc3F)CC2)C(C)(C)C)cc1 [XF078-45, N-(4-fluoro-5-(1-(10-(((S)-1-((2S,4R)-4-hydroxy-2-((4-(4-methylthiazol-5-yl)benzyl)carbamoyl)pyrrolidin-1-yl)-3,3-dimethyl-1-oxobutan-2-yl)amino)-10-oxodecanoyl)-1,2,3,6-tetrahydropyridin-4-yl)-2-((3S,5R)-3,4,5-trimethylpiperazin-1-yl)phenyl)-6-oxo-4-(trifluoromethyl)-1,6-dihydropyridine-3-carboxamide] | able to effectively degrade WDR5
Cc1ncsc1-c1ccc(CNC(=O)[C@@H]2C[C@@H](O)CN2C(=O)[C@@H](NC(=O)CCCCCCCCCC(=O)N2CC=C(c3cc(NC(=O)c4c[nH]c(=O)cc4C(F)(F)F)c(N4C[C@@H](C)N(C)[C@@H](C)C4)cc3F)CC2)C(C)(C)C)cc1 [XF078-46, N-(4-fluoro-5-(1-(11-(((S)-1-((2S,4R)-4-hydroxy-2-((4-(4-methylthiazol-5-yl)benzyl)carbamoyl)pyrrolidin-1-yl)-3,3-dimethyl-1-oxobutan-2-yl)amino)-11-oxoundecanoyl)-1,2,3,6-tetrahydropyridin-4-yl)-2-((3S,5R)-3,4,5-trimethylpiperazin-1-yl)phenyl)-6-oxo-4-(trifluoromethyl)-1,6-dihydropyridine-3-carboxamide] | able to effectively degrade WDR5
Cc1ncsc1-c1ccc(CNC(=O)[C@@H]2C[C@@H](O)CN2C(=O)[C@@H](NC(=O)COCCNC(=O)CCC(=O)N2CCN(c3ncc(-c4cc(NC(=O)c5c[nH]c(=O)cc5C(F)(F)F)c(N5C[C@@H](C)N(C)[C@@H](C)C5)cc4F)cn3)CC2)C(C)(C)C)cc1 [XF078-61, N-(4-fluoro-5-(2-(4-(4-((2-(2-(((S)-1-((2S,4R)-4-hydroxy-2-((4-(4-methylthiazol-5-yl)benzyl)carbamoyl)pyrrolidin-1-yl)-3,3-dimethyl-1-oxobutan-2-yl)amino)-2-oxoethoxy)ethyl)amino)-4-oxobutanoyl)piperazin-1-yl)pyrimidin-5-yl)-2-((3S,5R)-3,4,5-trimethylpiperazin-1-yl)phenyl)-6-oxo-4-(trifluoromethyl)-1,6-dihydropyridine-3-carboxamide] | able to effectively degrade WDR5
Cc1ncsc1-c1ccc(CNC(=O)[C@@H]2C[C@@H](O)CN2C(=O)[C@@H](NC(=O)COCC(=O)N2CCN(c3ncc(-c4cc(NC(=O)c5ccc(F)cc5C(F)(F)F)c(N5C[C@@H](C)N(C)[C@@H](C)C5)cc4F)cn3)CC2)C(C)(C)C)cc1 [XF078-99, (2S,4R)-1-((S)-2-(2-(2-(4-(5-(2-fluoro-5-(4-fluoro-2-(trifluoromethyl)benzamido)-4-((3S,5R)-3,4,5-trimethylpiperazin-1-yl)phenyl)pyrimidin-2-yl)piperazin-1-yl)-2-oxoethoxy)acetamido)-3,3-dimethylbutanoyl)-4-hydroxy-N-(4-(4-methylthiazol-5-yl)benzyl)pyrrolidine-2-carboxamide] | able to effectively degrade WDR5
Cc1ncsc1-c1ccc(CNC(=O)[C@@H]2C[C@@H](O)CN2C(=O)[C@@H](NC(=O)COCCOCC(=O)N2CCN(c3ncc(-c4cc(NC(=O)c5ccc(F)cc5C(F)(F)F)c(N5C[C@@H](C)N(C)[C@@H](C)C5)cc4F)cn3)CC2)C(C)(C)C)cc1 [XF078-101, (2S,4R)-1-((S)-2-(2-(2-(2-(4-(5-(2-fluoro-5-(4-fluoro-2-(trifluoromethyl)benzamido)-4-((3S,5R)-3,4,5-trimethylpiperazin-1-yl)phenyl)pyrimidin-2-yl)piperazin-1-yl)-2-oxoethoxy)ethoxy)acetamido)-3,3-dimethylbutanoyl)-4-hydroxy-N-(4-(4-methylthiazol-5-yl)benzyl)pyrrolidine-2-carboxamide] | able to effectively degrade WDR5
Cc1ncsc1-c1ccc(CNC(=O)[C@@H]2C[C@@H](O)CN2C(=O)[C@@H](NC(=O)CCOCCOCCC(=O)N2CCN(c3ncc(-c4cc(NC(=O)c5ccc(F)cc5C(F)(F)F)c(N5C[C@@H](C)N(C)[C@@H](C)C5)cc4F)cn3)CC2)C(C)(C)C)cc1 [XF078-102, (2S,4R)-1-((S)-2-(3-(2-(3-(4-(5-(2-fluoro-5-(4-fluoro-2-(trifluoromethyl)benzamido)-4-((3S,5R)-3,4,5-trimethylpiperazin-1-yl)phenyl)pyrimidin-2-yl)piperazin-1-yl)-3-oxopropoxy)ethoxy)propanamido)-3,3-dimethylbutanoyl)-4-hydroxy-N-(4-(4-methylthiazol-5-yl)benzyl)pyrrolidine-2-carboxamide] | able to effectively degrade WDR5
Cc1ncsc1-c1ccc(CNC(=O)[C@@H]2C[C@@H](O)CN2C(=O)[C@@H](NC(=O)COCCOCCOCC(=O)N2CCN(c3ncc(-c4cc(NC(=O)c5ccc(F)cc5C(F)(F)F)c(N5C[C@@H](C)N(C)[C@@H](C)C5)cc4F)cn3)CC2)C(C)(C)C)cc1 [XF078-103, (2S,4R)-1-((S)-2-(tert-butyl)-14-(4-(5-(2-fluoro-5-(4-fluoro-2-(trifluoromethyl)benzamido)-4-((3S,5R)-3,4,5-trimethylpiperazin-1-yl)phenyl)pyrimidin-2-yl)piperazin-1-yl)-4,14-dioxo-6,9,12-trioxa-3-azatetradecanoyl)-4-hydroxy-N-(4-(4-methylthiazol-5-yl)benzyl)pyrrolidine-2-carboxamide] | able to effectively degrade WDR5
Cc1ncsc1-c1ccc(CNC(=O)[C@@H]2C[C@@H](O)CN2C(=O)[C@@H](NC(=O)CCOCCOCCOCCOCCC(=O)N2CCN(c3ncc(-c4cc(NC(=O)c5ccc(F)cc5C(F)(F)F)c(N5C[C@@H](C)N(C)[C@@H](C)C5)cc4F)cn3)CC2)C(C)(C)C)cc1 [XF078-105, (2S,4R)-1-((S)-2-(tert-butyl)-19-(4-(5-(2-fluoro-5-(4-fluoro-2-(trifluoromethyl)benzamido)-4-((3S,5R)-3,4,5-trimethylpiperazin-1-yl)phenyl)pyrimidin-2-yl)piperazin-1-yl)-4,19-dioxo-7,10,13,16-tetraoxa-3-azanonadecanoyl)-4-hydroxy-N-(4-(4-methylthiazol-5-yl)benzyl)pyrrolidine-2-carboxamide] | able to effectively degrade WDR5
Cc1ncsc1-c1ccc(CNC(=O)[C@@H]2C[C@@H](O)CN2C(=O)[C@@H](NC(=O)COCCOCCOCCOCCOCC(=O)N2CCN(c3ncc(-c4cc(NC(=O)c5ccc(F)cc5C(F)(F)F)c(N5C[C@@H](C)N(C)[C@@H](C)C5)cc4F)cn3)CC2)C(C)(C)C)cc1 [XF078-106, (2S,4R)-1-((S)-2-(tert-butyl)-20-(4-(5-(2-fluoro-5-(4-fluoro-2-(trifluoromethyl)benzamido)-4-((3S,5R)-3,4,5-trimethylpiperazin-1-yl)phenyl)pyrimidin-2-yl)piperazin-1-yl)-4,20-dioxo-6,9,12,15,18-pentaoxa-3-azaicosanoyl)-4-hydroxy-N-(4-(4-methylthiazol-5-yl)benzyl)pyrrolidine-2-carboxamide] | able to effectively degrade WDR5
